This note sets out measurements from ChEMBL document CHEMBL4622979, “Non-rigid Diarylmethyl Analogs of Baloxavir as Cap-Dependent Endonuclease Inhibitors of Influenza Viruses” (J Med Chem, 2020).

Series [1] is described as follows: Ratio of AUClast in CD1 mouse spleen to plasma assessed as baloxavir acid level at 15 mg/kg, po administered as single dose measured up to 24 hrs by LC-MS/MS analysis. The class given is ADME, organism-based. The note with it: other tissue.
The nature of series [2]: MRTlast in CD1 mouse muscle assessed as baloxavir acid level at 15 mg/kg, po administered as single dose measured up to 24 hrs by LC-MS/MS analysis. It counts as ADME, organism-based, Muscle tissue. The note with it: in vivo.
Series [3] is described as follows: MRTlast in CD1 mouse lung assessed as baloxavir acid level at 15 mg/kg, po administered as single dose measured up to 24 hrs by LC-MS/MS analysis. It counts as ADME, organism-based. The note with it: in vivo.
Series [4] is described as follows: Tmax in CD1 mouse plasma assessed as baloxavir acid level at 15 mg/kg, po administered as single dose measured up to 24 hrs by LC-MS/MS analysis. To be noted: in vivo. The class given is ADME, organism-based.
Series [5] is described as follows: Half life in CD1 mouse blood assessed as baloxavir acid level at 15 mg/kg, po administered as single dose measured up to 24 hrs by LC-MS/MS analysis. To be noted: in vivo. The class given is ADME, organism-based.
The nature of series [6]: AUClast in CD1 mouse small intestine assessed as baloxavir acid level at 15 mg/kg, po administered as single dose measured up to 24 hrs by LC-MS/MS analysis. It counts as ADME, organism-based. The note with it: in vivo.
Series [7] can be described thus: Cmax in CD1 mouse lung assessed as baloxavir acid level at 15 mg/kg, po administered as single dose measured up to 24 hrs by LC-MS/MS analysis. The class given is ADME, organism-based. Further details: dose 15 mg/kg, route oral. The note with it: in vivo.
The nature of series [8]: MRTlast in CD1 mouse kidney assessed as baloxavir acid level at 15 mg/kg, po administered as single dose measured up to 24 hrs by LC-MS/MS analysis. The class given is ADME, organism-based. To be noted: in vivo.
Series [9] can be described thus: Elimination rate constant in CD1 mouse kidney assessed as baloxavir acid level at 15 mg/kg, po administered as single dose measured up to 24 hrs by LC-MS/MS analysis. To be noted: in vivo. It counts as ADME, organism-based.
The nature of series [10]: Cmax in CD1 mouse heart assessed as baloxavir acid level at 15 mg/kg, po administered as single dose measured up to 24 hrs by LC-MS/MS analysis. The class given is ADME, organism-based. Further details: dose 15 mg/kg, route oral. The note with it: in vivo.
A short description of series [11]: Elimination rate constant in CD1 mouse lung assessed as baloxavir acid level at 15 mg/kg, po administered as single dose measured up to 24 hrs by LC-MS/MS analysis. It counts as ADME, organism-based. To be noted: in vivo.
The nature of series [12]: MRTlast in CD1 mouse brain assessed as baloxavir acid level at 15 mg/kg, po administered as single dose measured up to 24 hrs by LC-MS/MS analysis. It counts as ADME, organism-based. The note with it: in vivo.
Series [13] in a line: Cmax in CD1 mouse liver assessed as baloxavir acid level at 15 mg/kg, po administered as single dose measured up to 24 hrs by LC-MS/MS analysis. The class given is ADME, organism-based. To be noted: in vivo. Further details: dose 15 mg/kg, route oral.
Series [14] can be described thus: Elimination rate constant in CD1 mouse brain assessed as baloxavir acid level at 15 mg/kg, po administered as single dose measured up to 24 hrs by LC-MS/MS analysis. It counts as ADME, organism-based. To be noted: in vivo.
Series [15] is described as follows: Tmax in CD1 mouse liver assessed as (12aR)-12-(Diphenylmethyl)-7-hydroxy-3,4,12,12a-tetrahydro-1H-[1,4]oxazino[3,4-c]pyrido[2,1-f ][1,2,4]triazine-6,8-dione level at 15 mg/kg, po administered as single dose measured up to 24 hrs by LC-MS/MS analysis. The class given is ADME, organism-based. The note with it: in vivo.
Series [16] is described as follows: Acute toxicity in CD1 mouse assessed as effect on body weight at 2000 mg/kg, po measured for 2 weeks. The class given is organism-based. The note with it: in vivo, 336 h.
Series [17] in a line: AUClast in CD1 mouse small intestine assessed as (12aR)-12-(Diphenylmethyl)-7-hydroxy-3,4,12,12a-tetrahydro-1H-[1,4]oxazino[3,4-c]pyrido[2,1-f ][1,2,4]triazine-6,8-dione level at 15 mg/kg, po administered as single dose measured up to 24 hrs by LC-MS/MS analysis. The class given is ADME, organism-based. The note with it: in vivo.
Series [18] is described as follows: AUCinfinity in CD1 mouse kidney assessed as (12aR)-12-(Diphenylmethyl)-7-hydroxy-3,4,12,12a-tetrahydro-1H-[1,4]oxazino[3,4-c]pyrido[2,1-f ][1,2,4]triazine-6,8-dione level at 15 mg/kg, po administered as single dose measured up to 24 hrs by LC-MS/MS analysis. It counts as ADME, organism-based. Further details: dose 15 mg/kg, time infinity, route oral. The note with it: in vivo.

Series [19] in a line: Cytotoxicity against human MRC5 cells assessed as reduction in cell viability by ATP bioluminescence assay. It counts as cell-based.
Series [20] in a line: Elimination rate constant in CD1 mouse kidney assessed as (12aR)-12-(Diphenylmethyl)-7-hydroxy-3,4,12,12a-tetrahydro-1H-[1,4]oxazino[3,4-c]pyrido[2,1-f ][1,2,4]triazine-6,8-dione level at 15 mg/kg, po administered as single dose measured up to 24 hrs by LC-MS/MS analysis. The class given is ADME, organism-based. The note with it: in vivo.
The nature of series [21]: AUCinfinity in CD1 mouse spleen assessed as (12aR)-12-(Diphenylmethyl)-7-hydroxy-3,4,12,12a-tetrahydro-1H-[1,4]oxazino[3,4-c]pyrido[2,1-f ][1,2,4]triazine-6,8-dione level at 15 mg/kg, po administered as single dose measured up to 24 hrs by LC-MS/MS analysis. The class given is ADME, organism-based. The note with it: in vivo. Further details: dose 15 mg/kg, route oral, time infinity.

A short description of series [22]: Acute toxicity in CD1 mouse assessed as effect on water consumption at 2000 mg/kg, po measured for 2 weeks. The class given is organism-based. To be noted: in vivo, 336 h.
Series [23] in a line: AUClast in CD1 mouse brain assessed as (12aR)-12-(Diphenylmethyl)-7-hydroxy-3,4,12,12a-tetrahydro-1H-[1,4]oxazino[3,4-c]pyrido[2,1-f ][1,2,4]triazine-6,8-dione level at 15 mg/kg, po administered as single dose measured up to 24 hrs by LC-MS/MS analysis. The class given is ADME, organism-based. To be noted: in vivo.
Series [24] in a line: Half life in CD1 mouse heart assessed as (12aR)-12-(Diphenylmethyl)-7-hydroxy-3,4,12,12a-tetrahydro-1H-[1,4]oxazino[3,4-c]pyrido[2,1-f ][1,2,4]triazine-6,8-dione level at 15 mg/kg, po administered as single dose measured up to 24 hrs by LC-MS/MS analysis. It counts as ADME, organism-based. To be noted: in vivo.
Series [25] is described as follows: Cmax in CD1 mouse spleen assessed as (12aR)-12-(Diphenylmethyl)-7-hydroxy-3,4,12,12a-tetrahydro-1H-[1,4]oxazino[3,4-c]pyrido[2,1-f ][1,2,4]triazine-6,8-dione level at 15 mg/kg, po administered as single dose measured up to 24 hrs by LC-MS/MS analysis. The class given is ADME, organism-based. Further details: dose 15 mg/kg, route oral. The note with it: in vivo.

Series [26] in a line: Half life in CD1 mouse muscle assessed as (12aR)-12-(Diphenylmethyl)-7-hydroxy-3,4,12,12a-tetrahydro-1H-[1,4]oxazino[3,4-c]pyrido[2,1-f ][1,2,4]triazine-6,8-dione level at 15 mg/kg, po administered as single dose measured up to 24 hrs by LC-MS/MS analysis. It counts as ADME, organism-based, Muscle tissue. To be noted: in vivo.
Series [27] is described as follows: MRTlast in CD1 mouse heart assessed as (12aR)-12-(Diphenylmethyl)-7-hydroxy-3,4,12,12a-tetrahydro-1H-[1,4]oxazino[3,4-c]pyrido[2,1-f ][1,2,4]triazine-6,8-dione level at 15 mg/kg, po administered as single dose measured up to 24 hrs by LC-MS/MS analysis. It counts as ADME, organism-based. The note with it: in vivo.
Series [28] in a line: Half life in CD1 mouse trachea assessed as (12aR)-12-(Diphenylmethyl)-7-hydroxy-3,4,12,12a-tetrahydro-1H-[1,4]oxazino[3,4-c]pyrido[2,1-f ][1,2,4]triazine-6,8-dione level at 15 mg/kg, po administered as single dose measured up to 24 hrs by LC-MS/MS analysis. The class given is ADME, organism-based. The note with it: in vivo.

Consider `COC(=O)OCOc1c2n(ccc1=O)N([C@@H]1c3ccccc3SCc3c1ccc(F)c3F)[C@@H]1COCCN1C2=O` [BALOXAVIR MARBOXIL], for which the “Ratio AUC” value in [1] is recorded as 7.99. Besides, the MRTlast in series [2] was 3.35 h; in series [3] it was 4.84 h; in series [8], 4.27 h; in [12], 8.42 h. The Tmax in series [4] was 2 h. For the same molecule, the t1/2 in series [5] is 3.29 h. Moreover, in series [6], the AUClast came to 105778 ng·h/g. The Cmax in [7] was 1188 ng/g; in series [10] it was 1188 ng/g; in series [13], 15342 ng/g. Further, the Kel stood at 0.21 h⁻¹ in series [9], 0.2 h⁻¹ in series [11] and 0.06 h⁻¹ in series [14].

As for `COC(=O)OCOc1c2n(ccc1=O)N(C(c1ccccc1)c1ccccc1)[C@@H]1COCCN1C2=O`, the Tmax in [15] came out at 0.5 h. The Activity entry in [16] and in [22] was “Non-Toxic” throughout. For the same molecule, the AUClast in series [17] is 43656 ng·h/g; in series [23] it was 609 ng·h/g. Also, the AUC in [18] turned out to be 18087 ng·h/g; in series [21] it was 4713 ng·h/g. Further, the CC50 in series [19] is more than 100 µM. Moreover, the Kel in series [20] stood at 0.27 h⁻¹. The t1/2 in [24] came to 1.69 h; in series [26] it was 1.71 h; in series [28], 4.91 h. The Cmax in series [25] is on record as 1119 ng/g. Also, the MRTlast in [27] was determined as 1.88 h.
